In data set [1] the target is T1, Serine/threonine-protein kinase B-raf (Homo sapiens, UniProt P15056, V600E). The data set can be described thus: Inhibition of full-length B-Raf V600E mutant (unknown origin).
Data set [2] has as its target T1, Serine/threonine-protein kinase B-raf. The data set can be described thus: Inhibition of B-Raf V600E mutant in human Malme-3M cells assessed as basal ERK phosphorylation. The class given is cell-based.
Data set [3] can be described thus: Apparent permeability of the compound from apical to basolateral direction in pig LLC-PK1 cells. The format is ADME, cell-based, Sus scrofa.
The nature of data set [4]: Clearance in mouse at 2.5 mg/kg, iv. The class given is ADME, organism-based. Also on record: dose 2.5 mg/kg, route intravenous. Particulars: in vivo.
Data set [5] is described as follows: Volume of distribution in mouse. The format is ADME, organism-based. Particulars: in vivo.
The nature of data set [6]: AUC in mouse at 30 mg/kg, po. Details: dose 30 mg/kg, route oral. The format is ADME, organism-based. Particulars: plasma.
Data set [7] in a line: Oral bioavailability in mouse at 30 mg/kg. The class given is ADME, organism-based. Particulars: in vivo.

Bounds are passed on as bounds.

Broadly, the IC50 is the midpoint of a concentration-inhibition curve. For orientation: Papp A→B means how fast a substance crosses the layer from the apical side. The term clearance denotes the rate of elimination divided by the concentration. A high value points to efficient removal. In general, Vd refers to a proportionality between amount in the body and measured concentration, not a real space. A lower Vd goes with little distribution into tissue. For orientation: AUC means the area under the concentration-time curve, a measure of exposure. A low value points to less exposure.

T1 sequence (P15056 2-766 V600E limits assumed): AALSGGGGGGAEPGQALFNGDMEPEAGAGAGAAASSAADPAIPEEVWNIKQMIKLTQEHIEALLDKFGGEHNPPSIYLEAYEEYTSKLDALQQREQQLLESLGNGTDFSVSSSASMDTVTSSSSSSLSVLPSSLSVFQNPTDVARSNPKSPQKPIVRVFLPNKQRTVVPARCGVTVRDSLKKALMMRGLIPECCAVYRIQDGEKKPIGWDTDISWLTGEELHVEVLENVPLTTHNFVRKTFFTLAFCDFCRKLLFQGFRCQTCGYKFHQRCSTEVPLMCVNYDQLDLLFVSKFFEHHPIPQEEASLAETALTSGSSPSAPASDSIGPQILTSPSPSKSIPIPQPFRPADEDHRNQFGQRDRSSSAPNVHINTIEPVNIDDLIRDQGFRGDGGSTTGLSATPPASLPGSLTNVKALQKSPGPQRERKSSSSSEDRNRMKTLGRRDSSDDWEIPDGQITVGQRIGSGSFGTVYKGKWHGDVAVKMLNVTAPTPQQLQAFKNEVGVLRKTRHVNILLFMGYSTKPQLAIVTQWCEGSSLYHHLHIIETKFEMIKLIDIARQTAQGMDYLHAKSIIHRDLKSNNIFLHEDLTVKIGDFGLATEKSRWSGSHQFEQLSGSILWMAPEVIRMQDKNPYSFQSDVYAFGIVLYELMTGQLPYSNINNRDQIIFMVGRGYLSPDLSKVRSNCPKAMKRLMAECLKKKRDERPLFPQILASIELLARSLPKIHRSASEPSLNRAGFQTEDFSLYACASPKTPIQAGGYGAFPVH

Take `CCCS(=O)(=O)Nc1ccc(F)c(Nc2ccc3ncn(Cc4ccccc4)c(=O)c3c2)c1Cl`: the IC50 amounted to 17 nM in data set [1] and 581 nM in data set [2].

For the compound `CCCS(=O)(=O)Nc1ccc(F)c(Nc2ccc3ncncc3c2)c1Cl`, the IC50 was 4 nM in data set [1] and 44 nM in data set [2].

In the case of `CCCS(=O)(=O)Nc1ccc(C)c(Nc2ccc3ncn(C)c(=O)c3c2)c1`, in data set [1], the IC50 is 851 nM.

As for `CCCS(=O)(=O)Nc1ccc(Cl)c(Nc2ccc3ncn(C)c(=O)c3c2)c1C#N`, the IC50 in data set [1] was found to be 0.2 nM; in data set [2], 16 nM.

In the case of `CCCS(=O)(=O)Nc1ccc(Cl)c(Oc2ccc3ncn(C)c(=O)c3c2)c1C#N`, the figures for the IC50 in data set [1] and in data set [2] were 0.2 nM and 15 nM, respectively.

Turning to `CCCS(=O)(=O)Nc1ccc(F)c(N(C)c2ccc3ncn(C)c(=O)c3c2)c1Cl`, the IC50 in data set [1] is 8 nM; in data set [2] it was 114 nM.

For the compound `CCCS(=O)(=O)Nc1ccc(Cl)c(N(C)c2ccc3ncn(C)c(=O)c3c2)c1F`, the IC50 turned out to be 3 nM in data set [1] and 84 nM in data set [2].

For `CCCS(=O)(=O)Nc1ccc(F)c(Oc2ccc3ncn(C)c(=O)c3c2)c1C#N`, the 50% inhibitory concentration (IC50) in data set [1] came to 0.2 nM; in data set [2], 3 nM.

In the case of `CCCS(=O)(=O)Nc1ccc(F)c(N(CC)c2ccc3ncn(C)c(=O)c3c2)c1F`, the figures for the IC50 in data set [1] and in data set [2] were 26 nM and 110 nM, respectively.

In the case of `CCCS(=O)(=O)Nc1ccc(F)c(Nc2ccc3ncn(C)c(=O)c3c2)c1F`, the IC50 in data set [1] was 19 nM; in data set [2], 55 nM.

Regarding `CCCS(=O)(=O)Nc1ccc(F)c(N(CC)c2ccc3ncn(C)c(=O)c3c2)c1Cl`, the IC50 turned out to be 30 nM in data set [1] and 603 nM in data set [2].

As for `CCCS(=O)(=O)Nc1ccc(F)c(Nc2ccc3ncnc(N(C)C)c3c2)c1Cl`, the IC50 in data set [1] was determined as 100 nM; in data set [2] it was 878 nM.

With `CCCS(=O)(=O)Nc1ccc(F)c(Nc2ccc3ncnc(NC)c3c2)c1Cl`, the IC50 in data set [1] was determined as 11 nM; in data set [2] it was 132 nM.

As for `CCCS(=O)(=O)Nc1cccc(Oc2ccc3ncn(C)c(=O)c3c2)c1C#N`, the IC50 in data set [1] came out at 0.3 nM; in data set [2], 7 nM.

For the compound `CCCS(=O)(=O)Nc1ccc(F)c(Nc2ccc3ncnc(OC)c3c2)c1Cl`, the half-inhibitory concentration (IC50) was 16 nM in data set [1] and 733 nM in data set [2].

Take `CCCS(=O)(=O)Nc1ccc(F)c(Nc2ccc3ncn(-c4cnn(C)c4)c(=O)c3c2)c1Cl`: the IC50 in data set [1] turned out to be 2 nM; in data set [2], 18 nM.

Regarding `CCCS(=O)(=O)Nc1ccc(F)c(Nc2ccc3nccnc3c2)c1Cl`, the IC50 in data set [1] amounted to 25 nM; in data set [2], 814 nM.

On to `CCCS(=O)(=O)Nc1ccc(F)c(N(C)c2ccc3ncn(C)c(=O)c3c2)c1F`, for which the IC50 in data set [1] is 11 nM; in data set [2], 62 nM.

In the case of `CCCS(=O)(=O)Nc1ccc(Cl)c(Nc2ccc3ncn(C)c(=O)c3c2)c1F`, the IC50 in data set [1] was 12 nM; in data set [2], 116 nM.

Turning to `CCCS(=O)(=O)Nc1ccc(F)c(Nc2ccc3ncccc3c2)c1F`, the figures for the IC50 in data set [1] and in data set [2] were 314 nM and 6250 nM, respectively.

Take `CCCS(=O)(=O)Nc1ccc(F)c(Nc2ccc3ncn(C)c(=O)c3c2)c1Cl`: the IC50 in data set [1] came out at 2 nM; in data set [2] it was 26 nM. The Papp A→B in data set [3] was over 8 ×10⁻⁶ cm/s. For the same compound, the clearance in data set [4] turned out to be 4.7 mL/min/kg. Besides, the Vd in data set [5] was found to be 0.49 L/kg. In data set [6], this compound gave an AUC of 282 µM·h. Further, in data set [7], the bioavailability came to 112%.

In the case of `CCCS(=O)(=O)Nc1ccc(F)c(Nc2ccc3ncncc3c2)c1F`, the IC50 was 33 nM in data set [1] and 118 nM in data set [2].

These data come from ChEMBL document CHEMBL3232845 (Bioorg Med Chem Lett, 2014).
